Data on 3 molecules can be found in patent EP3445382B1, “HARUNGANA MADAGASCARIENSIS LEAF EXTRACT FOR USE IN THE TREATMENT AND/OR PREVENTION OF ACNE” (Société d'Exploitation de Produits pour les Industries …, priority 2016, dated 2017).

Series [1] is described as follows: acellular lipid peroxidation, TBARS production (hemin-induced, phosphatidylcholine micelles). The note with it: 10 µM, hemin 5 µM, 1 hour at 37 °C. In kind it is biochemical. As to the method: In the present example, the effect of HMA extract was evaluated on oxidative stress. More specifically, its protective effect against lipid peroxidation (acellular reaction) was evaluated by measuring the production of thiobarbituric acid reactive substances (TBARS). The quantification of anti-oxidant capacity was undertaken as follows: Samples of HMA extract to be analyzed were prepared from a stock solution containing 5% (w/v) in glycerol/ultra-pure water (60/40). […] Additional control conditions were also included in the experimental design: without inducer (non-activated condition), 'Interference' controls (test compound added to the reactive medium without micelles of lipids to assess a potential auto-fluorescence of compounds) and 'Quenching' controls (test compound added at the end of reaction to check for potential quenching of the signal directly by the test compounds). […] TBARS thus produced were then evaluated by fluorescence measurement (λex 540 nm; λem 590 nm). The results are expressed as TBARS equivalent, representing the antioxidant activity expressed as Trolox equivalent of the test compound. Raw data were analyzed using Microsoft Excel® software. […]

A further series relates to PBMCs. In words: viability assay (alamarBlue) on LPS-stimulated PBMCs. The following applies: 10^-7 M. In kind it is cell-based, human. As to the method:
(§1) PBMCs were isolated from whole blood, seeded in 96-well plates and incubated in culture medium for 1 hour. The medium was then replaced by culture medium containing or not (stimulated control) the test compound or the reference compound, i.e., dexamethasone tested at 10^-7 M, and cells were pre-incubated for 1 hour. The inflammatory inducer, LPS (1 µg/ml) was then added and cells were incubated for 24 hours. A non-stimulated control was also performed in parallel. All experimental conditions were performed in n=3.
After incubation, the culture supernatants were collected in order to quantify IL-8, IL-10 and IL-12 release. A viability assay was performed on cells according to a standard alamarBlue® protocol.
After treatment, the cells were incubated with alamarBlue® reduced in resorufin via the mitochondrial reduction reactions of metabolically active cells. This transformation is proportional to the number of living cells. The optical density (OD) at 570nm was recorded using a microplate reader (VERSAmax, Molecular Devices).
A general note: The colour change of resazurin is a common sign of viable cells or microbes.

In series [2] the test system is IL-8 release by LPS-stimulated PBMCs. In words: IL-8 release by LPS-stimulated PBMCs (ELISA). The following applies: Homo sapiens, PBMC; 10^-7 M; LPS 1 µg/ml, 24 hours. It counts as cell-based. As to the method:
(§2) In the present example, the potential anti-inflammatory effect of HMA extract was investigated in human peripheral blood mononuclear cells (PBMCs) under stimulated conditions. More precisely, the effect of the test compound was evaluated on IL-8, IL-10 and IL-12 release by LPS-stimulated PBMCs using specific ELISA kits.
(§3) The quantification of anti-inflammatory effects was undertaken as follows: Samples of HMA extract to be analyzed were prepared from a stock solution containing 5% (w/v) in glycerol/ultra-pure water (60/40).
as §1
(§4) After incubation, the culture supernatants were collected in order to quantify IL-8, IL-10 and IL-12 release. […]
(§5) The quantity of IL-8, IL-10 and IL-12 released in the culture supernatants was measured using specific ELISA kits according to the supplier's instructions.
(§6) Raw data were analyzed using Microsoft Excel® software. […]

The subject of series [3] is IL-10 release by LPS-stimulated PBMCs. In words: IL-10 release by LPS-stimulated PBMCs (ELISA). In kind it is cell-based, human. The following applies: 10^-7 M, LPS 1 µg/ml, 24 hours. The method, then:
as §2, §3, §1, §4, §5, §6
In general terms: An ELISA detects its analyte on a solid surface through an enzyme-linked reagent.

Series [4] has as its system IL-12 release by LPS-stimulated PBMCs. Nature of the series: IL-12 release by LPS-stimulated PBMCs (ELISA). In kind it is cell-based, human. The note with it: 10^-7 M, LPS 1 µg/ml. The method, then:
as §2, §3, §1, §4, §5, §6

The target of series [5] is T1, pancreatic lipase (PL; 3.1.1.3) (Homo sapiens, UniProt P16233).
T1 sequence (P16233 17-465): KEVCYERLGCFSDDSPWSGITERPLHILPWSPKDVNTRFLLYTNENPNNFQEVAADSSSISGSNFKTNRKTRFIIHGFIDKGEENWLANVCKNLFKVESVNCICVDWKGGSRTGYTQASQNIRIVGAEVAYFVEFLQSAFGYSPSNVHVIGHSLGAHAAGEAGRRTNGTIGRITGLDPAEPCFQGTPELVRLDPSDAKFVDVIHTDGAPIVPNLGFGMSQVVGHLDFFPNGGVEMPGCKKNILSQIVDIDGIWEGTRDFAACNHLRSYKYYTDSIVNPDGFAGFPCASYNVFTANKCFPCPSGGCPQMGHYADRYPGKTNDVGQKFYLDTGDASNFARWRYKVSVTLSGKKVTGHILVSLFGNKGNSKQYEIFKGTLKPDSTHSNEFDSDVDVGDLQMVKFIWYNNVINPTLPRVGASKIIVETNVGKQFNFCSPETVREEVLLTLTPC
In words: lipase activity, biochemical test with radioactive triolein substrate. The following applies: 1000 nM; 2 hours at 37 °C. As to the method:
In the present example, the effect of HMA extract was evaluated on the lipase activity with a biochemical test using a radioactive substrate. The lipase catalyzes the hydrolysis of glycerol-ester (glycerides) and long chain fatty acid emulsions. The substrate of this enzyme is not a simple molecule but a non-aqueous phase of aggregated lipids. The usual method to quantify the lipase activity is titration (pH variation) which is not often efficient for the testing of inhibitory compounds and generates several artifacts. An alternative and more efficient method (followed in the present example) was to use a radioactive complex lipid substrate.
The quantification of lipase activity was undertaken as follows: Samples of HMA extract to be analyzed were prepared from a stock solution containing 5% (w/v) in glycerol/ultra-pure water (60/40).
The compound and the reference (Orlistat tested at 1000 nM) were incubated for 2 hours at 37 °C in presence of the enzyme, pancreatic lipase (PL; 3.1.1.3) at 125 U/ml and the radioactive substrate (3.34 µCi/tube, stable emulsion of triolein at 5.25 mM corresponding to a mix of cold and titriated triolein). A negative control was performed by incubating the substrate alone, without enzyme in the reaction mix, in order to determine the background signal. […]
as §6

A word on the % Inhibition: it is how much of the control response was suppressed. Lower therefore signals a response near the control. On to `Cc1c(C)c2c(c(C)c1O)CCC(C)(C(=O)O)O2` (centres unmarked) [Trolox, 6-hydroxy-2,5,7,8-tetramethylchroman-2-carboxylic acid], for which, in series [1], the “% Inhibition” value was determined as 72%.

The term inhibition denotes the share of the control response that was lost under treatment. Turning to `C[C@@H]1C[C@H]2[C@@H]3CCC4=CC(=O)C=C[C@]4(C)[C@@]3(F)[C@@H](O)C[C@]2(C)[C@@]1(O)C(=O)CO` [Dexamethasone, dexamethasone], the “Viability % stimulated control” value with PBMCs was 88 % stimulated control. Further, the inhibition at 0.1 µM in series [2] came out at 72%; in series [3] (Homo sapiens, PBMC, inhibition (I), read-out: % Inhibition (I) or % stimulation (S)), 32%; in series [4] (Homo sapiens, PBMC, 24 h), 100%. Further, the “% Inhibition (I) or % stimulation (S)” value in series [3] is 32 (I) %. The “% Inhibition” value in series [4] (24 hours) was above 100%.

Turning to `CCCCCCCCCCC[C@@H](C[C@@H]1OC(=O)[C@H]1CCCCCC)OC(=O)[C@H](CC(C)C)NC=O` [Orlistat], the inhibition at 1 µM in series [5] amounted to 41%.
